Assay results published in publication PMC7615656 (European journal of pharmacology, 2010).

Legend:
[1] = target: recombinant rat α1β3γ2 receptors (Rattus norvegicus, UniProt P18508+P62813); experiment: Two-electrode voltage clamp of GABA-induced chloride currents in Xenopus oocytes; assay type: cell-based; conditions: for efficacy (% GABA EC3): ns = not significant
[2] = target: recombinant rat α1β3γ2F77I receptors (Rattus norvegicus, UniProt P18508+P62813, F115I); experiment: as above; assay type: cell-based; conditions: for efficacy (% GABA EC3): α1β3γ2F77I, ns = not significant
[3] = target: recombinant rat α2β3γ2 receptors (Rattus norvegicus, UniProt P18508+P23576); experiment: as above; assay type: cell-based; conditions: α2β3γ2; for efficacy (% GABA EC3): ns = not significant
[4] = target: recombinant rat α2β3γ2F77I receptors (Rattus norvegicus, UniProt P18508+P23576, F115I); experiment: as above; assay type: cell-based; conditions: for efficacy (% GABA EC3): α2β3γ2F77I, ns = not significant
[5] = target: recombinant rat α3β3γ2 receptors (Rattus norvegicus, UniProt P18508+P20236); experiment: as above; assay type: cell-based; conditions: for efficacy (% GABA EC3): α3β3γ2, ns = not significant
[6] = target: recombinant rat α3β3γ2F77I receptors (Rattus norvegicus, UniProt P18508+P20236, F115I); experiment: as above; assay type: cell-based; conditions: for efficacy (% GABA EC3): α3β3γ2F77I, ns = not significant
[7] = target: recombinant rat α4β3γ2 receptors (Rattus norvegicus, UniProt P18508+P28471); experiment: as above; assay type: cell-based; conditions: for efficacy (% GABA EC3): ns = not significant
[8] = target: recombinant rat α4β3γ2F77I receptors (Rattus norvegicus, UniProt P18508+P28471, F115I); experiment: as above; assay type: cell-based; conditions: ns = not significant
[9] = target: recombinant rat α5β3γ2 receptors (Rattus norvegicus, UniProt P18508+P19969); experiment: as above; assay type: cell-based; conditions: for efficacy (% GABA EC3): ns = not significant
[10] = target: recombinant rat α5β3γ2F77I receptors (Rattus norvegicus, UniProt P18508+P19969, F115I); experiment: as above; assay type: cell-based; conditions: for efficacy (% GABA EC3): α5β3γ2F77I, ns = not significant
[11] = target: recombinant rat α6β3γ2 receptors (Rattus norvegicus, UniProt P18508+P30191); experiment: as above; assay type: cell-based; conditions: α6β3γ2; for efficacy (% GABA EC3): ns = not significant
[12] = target: recombinant rat α6β3γ2F77I receptors (Rattus norvegicus, UniProt P18508+P30191, F115I); experiment: as above; assay type: cell-based; conditions: ns = not significant
[13] = tested on: GABAA receptors containing the γ2F77I mutation; experiment: Modulation of GABA EC3 in receptors containing the γ2F77I mutation; assay type: cell-based, rat
[14] = read-out: efficacy (% GABA EC3)

recombinant rat α3β3γ2F77I receptors, sequence (P20236 29-493): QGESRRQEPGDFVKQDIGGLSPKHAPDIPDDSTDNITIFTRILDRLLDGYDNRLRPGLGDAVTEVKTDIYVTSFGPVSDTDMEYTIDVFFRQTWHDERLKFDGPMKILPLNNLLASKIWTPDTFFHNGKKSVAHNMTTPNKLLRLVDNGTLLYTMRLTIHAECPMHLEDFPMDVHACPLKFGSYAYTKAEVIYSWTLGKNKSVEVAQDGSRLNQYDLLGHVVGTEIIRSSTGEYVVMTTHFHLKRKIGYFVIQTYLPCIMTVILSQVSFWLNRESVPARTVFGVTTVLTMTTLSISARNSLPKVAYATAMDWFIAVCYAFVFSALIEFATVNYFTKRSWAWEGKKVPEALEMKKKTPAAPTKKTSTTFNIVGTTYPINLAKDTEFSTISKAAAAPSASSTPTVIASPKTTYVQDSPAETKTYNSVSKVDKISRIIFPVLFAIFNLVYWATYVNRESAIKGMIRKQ
recombinant rat α3β3γ2F77I receptors, sequence (P63079 26-473 partner): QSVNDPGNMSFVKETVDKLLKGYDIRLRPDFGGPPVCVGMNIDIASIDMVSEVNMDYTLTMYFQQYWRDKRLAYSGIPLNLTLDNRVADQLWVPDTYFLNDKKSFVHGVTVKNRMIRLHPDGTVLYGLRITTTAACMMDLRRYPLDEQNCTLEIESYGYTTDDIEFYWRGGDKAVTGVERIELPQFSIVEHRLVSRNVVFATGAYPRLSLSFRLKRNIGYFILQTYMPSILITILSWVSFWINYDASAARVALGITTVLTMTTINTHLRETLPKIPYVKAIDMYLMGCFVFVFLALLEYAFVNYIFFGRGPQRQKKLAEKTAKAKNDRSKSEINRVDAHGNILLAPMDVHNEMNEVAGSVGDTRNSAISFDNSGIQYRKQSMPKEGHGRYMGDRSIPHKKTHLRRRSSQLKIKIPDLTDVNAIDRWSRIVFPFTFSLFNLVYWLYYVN
recombinant rat α3β3γ2F77I receptors, sequence (P18508 39-466 F115I): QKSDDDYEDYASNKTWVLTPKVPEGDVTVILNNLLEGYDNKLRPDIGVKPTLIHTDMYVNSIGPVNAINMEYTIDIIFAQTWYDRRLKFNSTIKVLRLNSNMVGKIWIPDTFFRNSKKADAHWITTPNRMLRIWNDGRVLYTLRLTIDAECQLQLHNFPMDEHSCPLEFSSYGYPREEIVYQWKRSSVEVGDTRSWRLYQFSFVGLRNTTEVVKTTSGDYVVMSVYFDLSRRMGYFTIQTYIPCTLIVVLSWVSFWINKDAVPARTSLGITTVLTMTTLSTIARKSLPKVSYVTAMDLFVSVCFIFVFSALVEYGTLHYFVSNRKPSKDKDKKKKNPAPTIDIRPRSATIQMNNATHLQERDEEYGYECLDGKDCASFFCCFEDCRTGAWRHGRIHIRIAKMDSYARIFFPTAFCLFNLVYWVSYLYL
recombinant rat α3β3γ2 receptors, sequence (P20236 29-493): as the sequence (P20236 29-493) above
recombinant rat α3β3γ2 receptors, sequence (P63079 26-473 partner): as the sequence (P63079 26-473 partner) above
recombinant rat α3β3γ2 receptors, sequence (P18508 39-466): as the sequence (P18508 39-466 F115I) above, with I77F counted along it
recombinant rat α1β3γ2 receptors, sequence (P62813 28-455): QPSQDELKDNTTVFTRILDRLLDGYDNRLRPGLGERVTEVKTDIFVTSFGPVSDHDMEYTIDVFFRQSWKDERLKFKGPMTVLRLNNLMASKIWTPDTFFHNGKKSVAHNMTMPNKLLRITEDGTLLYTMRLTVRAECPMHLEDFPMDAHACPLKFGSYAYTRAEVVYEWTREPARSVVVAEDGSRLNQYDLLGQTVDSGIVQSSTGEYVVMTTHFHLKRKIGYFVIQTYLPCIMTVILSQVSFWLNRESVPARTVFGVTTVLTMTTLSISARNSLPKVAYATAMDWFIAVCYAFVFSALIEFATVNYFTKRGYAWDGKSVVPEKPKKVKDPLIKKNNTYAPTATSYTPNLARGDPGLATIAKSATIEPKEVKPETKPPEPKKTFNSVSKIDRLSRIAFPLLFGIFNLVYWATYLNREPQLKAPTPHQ
recombinant rat α1β3γ2 receptors, sequence (P63079 26-473 partner): as the sequence (P63079 26-473 partner) above
recombinant rat α1β3γ2 receptors, sequence (P18508 39-466): as the sequence (P18508 39-466 F115I) above, with I77F counted along it

CCOC(=O)c1ncn2c1CN(C)C(=O)c1cc(F)ccc1-2 [Ro15–1788, ethyl-8-fluoro-5,6-dihydro-5-methyl-6-oxo-4H-imidazo[1,5-a][1,4]benzodiazepine-3-carboxylate]
efficacy (% GABA EC3) ([1]; 10 nM, α1β3γ2): ns | efficacy (% GABA EC3) ([1]; 100 nM, α1β3γ2): ns | efficacy (% GABA EC3) ([1]; 1 μM, α1β3γ2): ns | efficacy (% GABA EC3) ([1]; 10 μM, α1β3γ2): ns | maximal effect on GABA-induced chloride flux (GABA EC3), % of control current ([1]; α1β3γ2, control current = 100%): no significant effects | efficacy (% GABA EC3) ([2]; 10 nM): ns | efficacy (% GABA EC3) ([2]; 100 nM): ns | efficacy (% GABA EC3) ([2]; 1 μM): ns | efficacy (% GABA EC3) ([2]; 10 μM): ns | efficacy (% GABA EC3) ([3]; 10 nM): 121 ± 2 % GABA EC3 | efficacy (% GABA EC3) ([3]; 100 nM): 128 ± 4 % GABA EC3 | efficacy (% GABA EC3) ([3]; 1 μM): 130 ± 5 % GABA EC3 | efficacy (% GABA EC3) ([3]; 10 μM): 133 ± 7 % GABA EC3 | efficacy (% GABA EC3) ([4]; 10 nM): ns | efficacy (% GABA EC3) ([4]; 100 nM): ns | efficacy (% GABA EC3) ([4]; 1 μM): ns | efficacy (% GABA EC3) ([4]; 10 μM): ns | efficacy (% GABA EC3) ([5]; 10 nM): 128 ± 4 % GABA EC3 | efficacy (% GABA EC3) ([5]; 100 nM): 148 ± 7 % GABA EC3 | efficacy (% GABA EC3) ([5]; 1 μM): 156 ± 8 % GABA EC3 | efficacy (% GABA EC3) ([5]; 10 μM): 157 ± 8 % GABA EC3 | efficacy (% GABA EC3) ([6]; 10 nM): ns | efficacy (% GABA EC3) ([6]; 100 nM): 106 ± 1 % GABA EC3 | efficacy (% GABA EC3) ([6]; 1 μM): 118 ± 2 % GABA EC3 | efficacy (% GABA EC3) ([6]; 10 μM): 139 ± 4 % GABA EC3 | EC50 [7]: > 232 nM | efficacy (% GABA EC3) ([7]; 10 nM, α4β3γ2): ns | efficacy (% GABA EC3) ([7]; 100 nM, α4β3γ2): 132 ± 8 % GABA EC3 | efficacy (% GABA EC3) ([7]; 1 μM, α4β3γ2): 162 ± 19 % GABA EC3 | efficacy (% GABA EC3) ([7]; 10 μM, α4β3γ2): 181 ± 10 % GABA EC3 | efficacy (% GABA EC3) ([8]; 10 nM): ns | efficacy (% GABA EC3) ([8]; 100 nM): ns | efficacy (% GABA EC3) ([8]; 1 μM): ns | efficacy (% GABA EC3) ([8]; 10 μM): ns | efficacy (% GABA EC3) ([9]; 10 nM, α5β3γ2): ns | efficacy (% GABA EC3) ([9]; 100 nM, α5β3γ2): ns | efficacy (% GABA EC3) ([9]; 1 μM, α5β3γ2): ns | efficacy (% GABA EC3) ([9]; 10 μM, α5β3γ2): ns | maximal effect on GABA-induced chloride flux (GABA EC3), % of control current ([9]; α5β3γ2, control current = 100%): no significant effects | efficacy (% GABA EC3) ([10]; 10 nM): ns | efficacy (% GABA EC3) ([10]; 100 nM): ns | efficacy (% GABA EC3) ([10]; 1 μM): ns | efficacy (% GABA EC3) ([10]; 10 μM): ns | efficacy (% GABA EC3) ([11]; 10 nM): ns | efficacy (% GABA EC3) ([11]; 100 nM): 128 ± 18 % GABA EC3 | efficacy (% GABA EC3) ([11]; 1 μM): 166 ± 9 % GABA EC3 | efficacy (% GABA EC3) ([11]; 10 μM): 179 ± 6 % GABA EC3 | efficacy (% GABA EC3) ([12]; 10 nM): ns | efficacy (% GABA EC3) ([12]; 100 nM): ns | efficacy (% GABA EC3) ([12]; 1 μM): ns | efficacy (% GABA EC3) ([12]; 10 μM): ns | activity in the mutated receptors ([13]; up to 100 nM): inactive

CNC(=O)c1cc2c(cn1)[nH]c1ccccc12 [FG7142, N-methyl-β-carboline-3-carboxamide]
efficacy (% GABA EC3) ([1]; 100 nM, α1β3γ2): ns | activity at 1 µM [1, 14]: 88 ± 5% | activity at 10 µM [1, 14]: 92 ± 4% | activity at 0.1 µM [2, 14]: 107 ± 1% | activity at 1 µM [2, 14]: 111 ± 1% | activity at 10 µM [2, 14]: 124 ± 3% | efficacy (% GABA EC3) ([3]; 100 nM): ns | efficacy (% GABA EC3) ([3]; 1 μM): ns | efficacy (% GABA EC3) ([3]; 10 μM): ns | maximal effect on GABA-induced chloride flux (GABA EC3), % of control current ([3]; control current = 100%): the reduction was not significant | efficacy (% GABA EC3) ([4]; 100 nM): ns | efficacy (% GABA EC3) ([4]; 1 μM): ns | activity at 10 µM [4, 14]: 117 ± 4% | efficacy (% GABA EC3) ([5]; 100 nM): ns | activity at 1 µM [5, 14]: 95 ± 2% | activity at 10 µM [5, 14]: 91 ± 2% | efficacy (% GABA EC3) ([6]; 100 nM): ns | activity at 1 µM [6, 14]: 115 ± 5% | activity at 10 µM [6, 14]: 126 ± 6% | efficacy (% GABA EC3) ([7]; 100 nM, α4β3γ2): ns | efficacy (% GABA EC3) ([7]; 1 μM, α4β3γ2): ns | efficacy (% GABA EC3) ([7]; 10 μM, α4β3γ2): ns | maximal effect on GABA-induced chloride flux (GABA EC3), % of control current ([7]; α4β3γ2, control current = 100%): did not significantly influence | efficacy (% GABA EC3) ([9]; 100 nM, α5β3γ2): ns | efficacy (% GABA EC3) ([9]; 1 μM, α5β3γ2): ns | activity at 10 µM [9, 14]: 84 ± 5% | activity at 0.1 µM [10, 14]: 111 ± 2% | activity at 1 µM [10, 14]: 112 ± 4% | activity at 10 µM [10, 14]: 122 ± 4% | efficacy (% GABA EC3) ([11]; 100 nM): ns | efficacy (% GABA EC3) ([11]; 1 μM): ns | efficacy (% GABA EC3) ([11]; 10 μM): ns | maximal effect on GABA-induced chloride flux (GABA EC3), % of control current ([11]; control current = 100%): did not significantly influence | maximum stimulation of the GABA-induced current ([13]; GABAA receptors containing the γ2F77I mutation): 126 ± 6%
